Consider two compounds from paper PMC8915600, “Optimization of experimental conditions for skin-PAMPA measurements” (ADMET & DMPK, 2020).

Where two headings read alike, the source gives them in different places. Marks after values point to notes of the source that are not given here.

Series [1] in a line: skin-PAMPA permeability assay (gradient-pH, UPLC-DAD). The settings on record: for RM (membrane retention): mole fraction, neutral form; for Papp at 4 h, 50 μM / Papp at 24 h, 50 μM: PAMPA, log Pe. A general note: The PAMPA barrier holds no transporters, so it reflects passive diffusion.
The conditions of series [2]: logarithm of human skin permeation coefficient, neutral form; corrected for ionization in water and for temperature at 37 °C; cited from earlier work.
The conditions of series [3]: PAMPA.
For series [4] the following is noted: cited from earlier work.
On the set-up of series [5]: method as in earlier work. The settings on record: octanol-water partition coefficient; cited from earlier work.
Where [6] appears, read: with stirring, 30 min incubation.
Setting [7] is: without stirring, 30 min incubation.
[8] abbreviates: without stirring, 4 h incubation.
[9] abbreviates: without stirring, 24 h incubation.
The mark [10] stands for this setting: without stirring, 4 h incubation, neutral form (donor pH 3.0, aminopyrine pH 7.0), acceptor pH 7.4, 32 °C.

On to `C[C@H]1O[C@@H](O[C@H]2[C@@H](O)C[C@H](O[C@H]3[C@@H](O)C[C@H](O[C@H]4CC[C@@]5(C)[C@H](CC[C@@H]6[C@@H]5CC[C@]5(C)[C@@H](C7=CC(=O)OC7)CC[C@]65O)C4)O[C@@H]3C)O[C@@H]2C)C[C@H](O)[C@@H]1O` [Digitoxin], for which the “RM (membrane retention)” value in series [1] (setting [6]) was 0.00; in series [1] (with stirring, 4 h incubation), 0.22(±0.04); in series [1] (with stirring, 24 h incubation), 0.29(±0.05); in series [1] (setting [7]), 0.00; in series [1] (setting [8]), 0.09(±0.03); in series [1] (setting [9]) it was 0.25(±0.02). Also, in series [2], the “log Kp” value is given as -8.15 cm/s. In series [3], the “log Pe” value is on record as -6.34(±0.13) cm/s.

Broadly, the Papp is the rate of passage across a membrane or cell layer, normalised by area and donor concentration. Low values mean slow passage, high ones fast passage. Regarding `O=c1[nH]cc(F)c(=O)[nH]1` [5-Fluorouracil], the apparent permeability coefficient (Papp) at 4 h, 50 μM in series [1] (with stirring, 4 h incubation, neutral form (donor pH 3.0, aminopyrine pH 7.0), acceptor pH 7.4, 32 °C) was 1.7 ×10⁻⁶ cm/s; in series [1] (setting [10]) it was 0.339 ×10⁻⁶ cm/s. Besides, the Papp at 24 h, 50 μM in series [1] (with stirring, 24 h incubation, neutral form (donor pH 3.0, aminopyrine pH 7.0), acceptor pH 7.4, 32 °C) was 0.692 ×10⁻⁶ cm/s; in series [1] (without stirring, 24 h incubation, neutral form (donor pH 3.0, aminopyrine pH 7.0), acceptor pH 7.4, 32 °C), 0.851 ×10⁻⁶ cm/s. For the same compound, the “RM (membrane retention)” value is given as 0.00 in series [1] (setting [6]); 0.04(±0.04) in series [1] (with stirring, 4 h incubation); 0.08(±0.03) in series [1] (with stirring, 24 h incubation); 0.00 in series [1] (setting [7]); 0.01(±0.03) in series [1] (setting [8]); 0.05(±0.02) in series [1] (setting [9]). Moreover, the “log Pe” value in series [1] (optimized assay conditions (4 h incubation, stirring), measured at the pH corresponding to the neutral form, acceptor pH 7.4) is -5.77±0.02 cm/s; in series [1] (setting [10]) it was -6.47 cm/s. For the same compound, the pKa in series [4] is given as 7.86 ^a. In series [2], the “log Kp” value is on record as -6.82 cm/s. Moreover, the “log Po/w” value in series [5] is -0.89.
